13 molecules from BindingDB's records for doi:10.1016/S1074-5521(02)00310-1 (Tohoku University, 2003) can be followed below.

The structures appear in SMILES notation.

The target in the test is T1, Peptidyl-prolyl cis-trans isomerase ESS1 (Saccharomyces cerevisiae (strain ATCC 204508 / S288c), UniProt P22696).
T1 sequence (P22696 whole entry): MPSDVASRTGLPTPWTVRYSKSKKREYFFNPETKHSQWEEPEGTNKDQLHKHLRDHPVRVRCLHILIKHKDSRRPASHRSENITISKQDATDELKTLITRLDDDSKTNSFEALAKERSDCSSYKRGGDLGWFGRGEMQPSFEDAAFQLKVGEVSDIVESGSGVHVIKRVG
Put plainly: Pin1 Inhibition Assay. Conditions: pH 7; 0 °C. The method, then:
Assay was carried out measuring the MCA fluorescence using Suc-Ala-Glu-Pro-Phe-MCA as substrate purchased from Japan Peptide Institute Co.
One may read the IC50 as the midpoint of a concentration-inhibition curve. Take `CC(C)C[C@H](NC(=O)c1[nH]cnc1C(=O)N1CCc2ccccc2C1)C(=O)OCc1ccccc1` [(2S)-2-[[[5-[3,4-dihydro-1H-isoquinolin-2-yl(oxo)methyl]-1H-imidazol-4-yl]-oxomethyl]amino]-4-methylpentanoic acid (phenylmethyl) ester]: the IC50 was over 1.5 µM.

`COc1ccccc1-c1cc(=O)c2c(O)ccc([N+](=O)[O-])c2o1` [MLS000518626]: the IC50 was over 10 µM.

With `CCOC(=O)c1ccc(NC(=O)c2[nH]cnc2C(=O)N[C@@H](Cc2ccccc2)C(=O)OC(C)(C)C)cc1` [ethyl 4-[[5-[[(2S)-1-[(2-methylpropan-2-yl)oxy]-1-oxidanylidene-3-phenyl-propan-2-yl]carbamoyl]-1H-imidazol-4-yl]carbonylamino]benzoate], the IC50 was over 10 µM.

`COc1ccc(C2/C=C\CN(C(=O)c3ccccc3)CC(=O)N2Cc2ccc(F)cc2)cc1` (stereo not drawn): the IC50 was over 10 µM.

As for `CC[C@@H]1CC=C[C@H]2[C@H]1C(=O)N(Cc1ccccc1)[C@H]2c1ccc(OC)c(Cl)c1` [(3R,3aS,7R,7aS)-3-(3-chloranyl-4-methoxy-phenyl)-7-ethyl-2-(phenylmethyl)-3a,6,7,7a-tetrahydro-3H-isoindol-1-one], the IC50 was determined as 2 µM.

The molecule `C[C@@]12CCC=C[C@H]1[C@H](c1ccc3ccccc3c1Br)N(Cc1ccccc1)C2=O` [(3R,3aR,7aR)-3-(1-bromanylnaphthalen-2-yl)-7a-methyl-2-(phenylmethyl)-3,3a,6,7-tetrahydroisoindol-1-one] returned an IC50 of 1.5 µM.

`CC(C)C[C@H](NC(=O)c1[nH]cnc1C(=O)N[C@@H](C)C(=O)OC(C)(C)C)C(=O)OCc1ccccc1` [(phenylmethyl) (2S)-4-methyl-2-[[4-[[(2S)-1-[(2-methylpropan-2-yl)oxy]-1-oxidanylidene-propan-2-yl]carbamoyl]-1H-imidazol-5-yl]carbonylamino]pentanoate] registered an IC50 of over 10 µM.

Molecule `COc1ccc(Br)cc1[C@H]1[C@@H]2C=CCC[C@@]2(C)C(=O)N1Cc1ccccc1` [(3R,3aR,7aR)-2-benzyl-3-(5-bromo-2-methoxy-phenyl)-7a-methyl-3,3a,6,7-tetrahydroisoindol-1-one] showed a concentration for half-maximal inhibition (IC50) of 5 µM.

Consider `CCOC(=O)c1ccc(NC(=O)c2[nH]cnc2C(=O)N[C@@H](CCCCNC(=O)OC(C)(C)C)C(=O)OC(C)(C)C)cc1` [MLS000849609], for which it took 2.5 µM to reach half-maximal inhibition (IC50).

Turning to `O=C(O)CN1C(=O)c2cccc3cccc(c23)C1=O` [(1,3-dioxo-1H-benzo[de]isoquinolin-2(3H)-yl)acetic acid], the IC50 is over 10 µM.

Consider `Cc1ccc(-c2cc([C@H]3[C@@H]4C=CCC[C@@]4(C)C(=O)N3Cc3ccccc3)ccc2F)cc1` [(3R,3aR,7aR)-3-[4-fluoro-3-(4-methylphenyl)phenyl]-7a-methyl-2-(phenylmethyl)-3,3a,6,7-tetrahydroisoindol-1-one], for which 5 µM corresponded to half-maximal inhibition (IC50).

For the molecule `Cc1cccc(NC(=O)c2[nH]cnc2C(=O)N[C@@H](CCCCNC(=O)OC(C)(C)C)C(=O)OC(C)(C)C)c1` [ILP-IV-14], the IC50 was over 10 µM.

`COc1ccc(C2CC(O)(c3ccccc3)Oc3c(C)ccc(C)c32)cc1` (stereo not drawn) [4-(4-methoxyphenyl)-5,8-dimethyl-2-phenyl-chroman-2-ol] returned an IC50 of 5 µM.
